Like-named read-outs stand apart in the source and are kept apart here.
Assays:
aconitate hydratase (AH) [1] = system: T1, aconitate hydratase (AH); settings: read-out: Citrate / Km; enzyme from cells grown at pH 5.5; 50 mM Tris-HCl pH 7.8, 25 °C; partially purified
T1 construct: gene ACO1

aconitate hydratase (AH) [2] = system: T2, aconitate hydratase (AH); experiment: spectrophotometric at […] nm; Lineweaver-Burk; format: biochemical, Yarrowia lipolytica; settings: enzyme from cells grown at pH 5.5; 50 mM Tris-HCl pH 7.8, 25 °C; partially purified; reverse reaction; read-out: Isocitrate / Km
T2 construct: gene ACO1; cells grown at pH 5.5; [4Fe-4S] enzyme

| Compound | Km (aconitate hydratase (AH) [1]) | Km (aconitate hydratase (AH) [2]) |
| --- | --- | --- |
| O=C(O)CC(O)(CC(=O)O)C(=O)O [citrate] | 320 ± 11 µM |  |
| O=C(O)C[C@H](C(=O)O)[C@@H](O)C(=O)O [isocitrate] |  | 270 ± 15 µM |
